According to US10322112B2, “Compound combinations for attenuation of bacterial virulence” (priority 2016, dated 2019):
“Also recorded” adds a separate entry of the source.

Key:
RhlR = biological target: T1, RhlR (Pseudomonas aeruginosa, UniProt P54292); assay: E. coli reporter gene primary agonism assay, RhlR; type: cell-based; conditions: compounds at 100 mm; 900 mm BHL = 100%; error ±10%; selected data reproduced from Welsh et al., 2015
T1 construct: expressed in transfected cells; host or cells: E. coli JLD271
Protocol: (§1) Percent agonism of a given non-native inducer in a given bacterium and QS system receptor is measured with resepct to the maximum level of agonism (activation) by the native ligand of that receptor in the given bacterium. Percent antagonism is measured in competitive assays. The QS system of interest is activated to 100% with added or endogenous native ligand and the % antagonism of the non-native inducer is assessed with respect to 100% activation by the native inducer. The native ligand which induces LasR is OdDHL, which induces RhlR is BHL and which induces PqsR is PQS. As described herein and in cited references, assays for assessment of % agonism or % atangonism may be performed in E. coli systems (heterologous) or in the bacterium of interest, e.g., Pseudomonas. Dependent upon the assay system employed native ligand may be endogenously present or it may be exogenously supplied to the assay system. […] In antagonism assays using the native strains with functional QS systems, e.g., those of P. aeruginosa, endogenous native ligand is made in the system, so no native ligand is added. In native strains having one or more non-functional QS systems (mutant strains), e.g., P. aeruginosa mutants with non-functional QS systems, native ligand is added at about 10-100× the EC50 of the native ligand. In the agonism assay, native ligand is added as a control. Details of the assays are provided herein in Example 9 and in references cited in Example 9.

QscR [1] = biological target: T2, QscR (Pseudomonas aeruginosa, UniProt G3XD77); conditions: compounds at 100 mm; E. coli reporter strain JLD271/pJN105Q/pSC11-Q; 100 mm OdDHL = 100%; error ±10%
Excerpt: (§2) Construction of pSC11-Q: A 348 bp fragment spanning the upstream region of PA1897 (¢304 to +43 relative to the PA1897 translationalstart codon) was amplified from plasmid pJL101*by using primers 5′-GAATAT GGATCC TCTCTC CGCAGA TACCTG-3′ (BamHI site underlined) SEQ ID NO:5 and 5′-GCTATT GAATTC TGAAGA TGAATA GCGCCAC-3′ (EcoRI site underlined) SEQ ID NO:6. The PCR-generated fragment was digested with EcoRI and BamHI and subsequently ligated into EcoRI/BamHI-digested pPROBE-KT to generate pPROBE-KQ2. […] CGCC-3′ (BamHI site underlined) SEQ ID NO:8. The PCR-generated fragment was digested with SalI and BamHI and subsequently ligated into SalI/BamHI-digested pSC11 to generate pSC11-Q.
(§3) E. coli reporter gene assays: Primary assays for RhlR, LasR, and QscR activity in E. coli JLD271 reporter (beta-galactosidase) strains were performed as reported by Welsh et al. 2015, with the following modifications:
(§4) For all primary and dose-response antagonism assays, the concentration of native ligand utilized was approximately equal to its EC50 value in each bacterial reporter strain. For RhlR, LasR, and QscR primary antagonism assays, synthetic ligand (100 mm) was screened against BHL (10 mm), OdDHL (2 nm), and OdDHL (15 nm), respectively. For RhlR, LasR, and QscR primary agonism assays, synthetic compound (100 mm) was screened alongside and compared to the natural ligand (900 mm BHL or 100 mm OdDHL) for the receptor. As part of the beta-galactosidase assay protocol, plates to which CPRG substrate had been added were incubated at either 25° C. (LasR assay) or 30° C. (RhlR and QscR assays) until positive control wells developed a deep red color (10 min for LasR, 30 min for RhlR, and 60 min for QscR). Dose-response reporter gene assays were performed according to these protocols by using varying concentrations of compound.

LasR [2] = biological target: T3, LasR (Pseudomonas aeruginosa, UniProt P25084); assay: E. coli reporter gene primary agonism assay, LasR; type: cell-based; conditions: compounds at 100 mm; E. coli reporter strain JLD271/pJN105L/pSC11; 100 mm OdDHL = 100%; error ±10%
T3 construct: expressed in transfected cells; host or cells: E. coli JLD271
Protocol: as §1

LasR [3] = biological target: T3, LasR; assay: E. coli reporter gene primary antagonism assay, LasR; type: cell-based; conditions: compounds at 100 mm against 2 nm OdDHL; E. coli beta-galactosidase reporter strain JLD271/pJN105L/pSC11; untreated culture = 100%; negative values indicate receptor agonism; error ±10%
Protocol: as §1

QscR [4] = biological target: T2, QscR; type: cell-based; parameters: expressed in transfected cells; host or cells: E. coli JLD271; conditions: compounds at 100 mm against 15 nm OdDHL; E. coli reporter strain JLD271/pJN105Q/pSC11-Q; untreated culture = 100%; error ±10%
Excerpt: as §2, §3, §4

P. aeruginosa (PAO1) [5] = assay: Elastase B assay; type: cell-based, Pseudomonas aeruginosa; conditions: 17 h
Protocol: (§5) A. Pyocyanin Assay Protocol. The amount of pyocyanin in P. aeruginosa culture supernatants was measured following a reported protocol (O'Loughlin et al., 2013) with modifications. A 10 mL overnight culture of P. aeruginosa PAO1 was grown for 16 h. DMSO stock solutions of test compounds (20 mM) were prepared, and 10 μL or 5 μL aliquots were added to sterile 15 mL borosilicate glass test tubes. An inoculating culture was prepared by diluting the overnight culture 1:100 into freshly prepared assay medium (see above), and 2 mL aliquots of this subculture were added to each test tube (0.5% DMSO, final). The cultures were grown for 17 h, and the final cell density measured by reading OD600. Relative pyocyanin levels were measured by first pelleting 1.5 mL of well-mixed culture at 4,000 g for 10 min, transferring 200 μL of the resulting supernatant to a clear, plastic 96-well microtiter plate, and reading absorbance at 695 nm. Media background absorbance (measured from a “no bacteria” control) was subtracted, the resulting values growth normalized by dividing by the final OD600378, and the data plotted relative to a DMSO-treated positive control. B. Rhamnolipid Assay Protocol. Rhamnolipid was quantified following a reported protocol (Koch et al., 1991) with modifications. Assay cultures were prepared and grown in an identical manner to the pyocyanin assay above. Aliquots of the final culture supernatant (1 mL) were transferred to 1 dram glass vials and extracted twice with 1 mL diethyl ether. The pooled organic fractions were evaporated to dryness, and the resulting residue reconstituted in 200 μL de-ionized water. […] After briefly cooling to room temperature, 200 μL of the resulting yellow to yellow-orange solution was transferred to a clear 96-well microtiter plate, and the absorbance at 421 nm measured. Media background absorbance (measured from a “no bacteria” control) was subtracted, the resulting values growth normalized by dividing by the final OD600, and the data plotted relative to a DMSO-treated positive control. […] The amount of elastase B in P. aeruginosa culture supernatants was measured following a reported protocol (Geske et al., 2007) with modifications. […] To quantify elastase B activity, the undigested elastin was pelleted by centrifugation of the assay plate at 1,500 g for 10 min, after which 100 μL of the supernatant was transferred to a new, clear 96-well plate, and the absorbance at 490 nm measured. Media background absorbance (measured from a “no bacteria” control) was subtracted, the resulting values growth normalized by dividing by the final OD600, and the data plotted relative to a DMSO-treated positive control.

P. aeruginosa (PAO1) [6] = assay: Rhamnolipid assay; type: cell-based, Pseudomonas aeruginosa; conditions: MOPS Glutamate and Glucose media, complete or iron/phosphate depleted, 17 h, 100 μM (compounds 1, 2, 3), 25 μM (compound 4), relative to DMSO
Protocol: as §5

P. aeruginosa (PAO1) [7] = assay: Pyocyanin assay; type: cell-based, Pseudomonas aeruginosa; conditions: for pyocyanin production, single compound screens: MOPS Glutamate and Glucose media, complete or iron/phosphate depleted, 17 h, 100 μM (compounds 1, 2, 3), 25 μM (compound 4), relative to DMSO
Protocol: A. Pyocyanin Assay Protocol. The amount of pyocyanin in P. aeruginosa culture supernatants was measured following a reported protocol (O'Loughlin et al., 2013) with modifications. A 10 mL overnight culture of P. aeruginosa PAO1 was grown for 16 h. DMSO stock solutions of test compounds (20 mM) were prepared, and 10 μL or 5 μL aliquots were added to sterile 15 mL borosilicate glass test tubes. An inoculating culture was prepared by diluting the overnight culture 1:100 into freshly prepared assay medium (see above), and 2 mL aliquots of this subculture were added to each test tube (0.5% DMSO, final). The cultures were grown for 17 h, and the final cell density measured by reading OD600. Relative pyocyanin levels were measured by first pelleting 1.5 mL of well-mixed culture at 4,000 g for 10 min, transferring 200 μL of the resulting supernatant to a clear, plastic 96-well microtiter plate, and reading absorbance at 695 nm. Media background absorbance (measured from a “no bacteria” control) was subtracted, the resulting values growth normalized by dividing by the final OD600378, and the data plotted relative to a DMSO-treated positive control. B. Rhamnolipid Assay Protocol. Rhamnolipid was quantified following a reported protocol (Koch et al., 1991) with modifications. Assay cultures were prepared and grown in an identical manner to the pyocyanin assay above. Aliquots of the final culture supernatant (1 mL) were transferred to 1 dram glass vials and extracted twice with 1 mL diethyl ether. The pooled organic fractions were evaporated to dryness, and the resulting residue reconstituted in 200 μL de-ionized water. In a 1.7 mL plastic centrifuge tube, 50 μL of this extract was diluted into 450 μL of a solution of 0.19% (w/v) orcinol in 50% (v/v) concentrated H2SO4 (or 20 μL extract into 480 μL orcinol solution for cultures grown in MOPS Glucose medium). The tubes were vortexed thoroughly to mix and incubated in an 80° C. heating block for 30 min. After briefly cooling to room temperature, 200 μL of the resulting yellow to yellow-orange solution was transferred to a clear 96-well microtiter plate, and the absorbance at 421 nm measured. Media background absorbance (measured from a “no bacteria” control) was subtracted, the resulting values growth normalized by dividing by the final OD600, and the data plotted relative to a DMSO-treated positive control. C. Elastase B Assay Protocol. The amount of elastase B in P. aeruginosa culture supernatants was measured following a reported protocol (Geske et al., 2007) with modifications. Assay cultures were prepared and grown in an identical manner to the pyocyanin assay above. Aliquots of the final culture supernatant (50 μL) were added to the wells of a clear, plastic 96-well plate. To each well, 150 μL of 0.5% (w/v) elastin-congo red conjugate (Elastin Products Co.) in Tris buffer (10 mM Tris-HCl, 1 mM CaCl2, pH 7.2) was added. The plate was sealed with a polypropylene storage mat (Costar 3080) and incubated in a 37° C. shaking incubator (200 rpm) attached to a Labquake rotator for 12 h (for experiments in SCFM2) or 24 h (for experiments in MOPS medium). To quantify elastase B activity, the undigested elastin was pelleted by centrifugation of the assay plate at 1,500 g for 10 min, after which 100 μL of the supernatant was transferred to a new, clear 96-well plate, and the absorbance at 490 nm measured. Media background absorbance (measured from a “no bacteria” control) was subtracted, the resulting values growth normalized by dividing by the final OD600, and the data plotted relative to a DMSO-treated positive control.

T3 sequence (P25084 whole entry): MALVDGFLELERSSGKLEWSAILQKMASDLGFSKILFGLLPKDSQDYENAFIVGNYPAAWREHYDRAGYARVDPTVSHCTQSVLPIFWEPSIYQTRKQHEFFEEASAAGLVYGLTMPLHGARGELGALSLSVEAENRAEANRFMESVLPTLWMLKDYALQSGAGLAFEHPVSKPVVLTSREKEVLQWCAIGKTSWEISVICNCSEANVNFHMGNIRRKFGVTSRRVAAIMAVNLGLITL
T1 sequence (P54292 whole entry): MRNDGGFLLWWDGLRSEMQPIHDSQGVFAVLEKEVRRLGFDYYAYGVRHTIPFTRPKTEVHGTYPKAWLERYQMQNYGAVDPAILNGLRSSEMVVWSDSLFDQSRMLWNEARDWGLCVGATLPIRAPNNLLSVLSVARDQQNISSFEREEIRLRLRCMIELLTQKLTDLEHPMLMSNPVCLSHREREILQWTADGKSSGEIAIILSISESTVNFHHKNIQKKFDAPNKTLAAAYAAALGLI
T2 sequence (G3XD77 entry or part of it): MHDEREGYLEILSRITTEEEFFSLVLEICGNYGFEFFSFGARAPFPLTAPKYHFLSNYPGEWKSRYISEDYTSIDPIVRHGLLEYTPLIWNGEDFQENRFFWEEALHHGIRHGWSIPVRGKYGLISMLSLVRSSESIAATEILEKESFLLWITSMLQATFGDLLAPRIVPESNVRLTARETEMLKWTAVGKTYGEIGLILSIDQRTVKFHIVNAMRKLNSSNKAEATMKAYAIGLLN

Compound	Activation [%] RhlR (RhlR) [%]	Activation [%] QscR (QscR [1]) [%]	Activation [%] LasR (LasR [2]) [%]	further results
O=C(Cc1ccccc1I)N[C@H]1CCOC1=O [C12]	70	5	−4	
C=CCCC(=O)N[C@H]1CCOC1=O [D8]	81	13	26	
Cc1cccc(CC(=O)N[C@H]2CCOC2=O)c1 [E1]	69	29	21	
COc1cccc(CC(=O)N[C@H]2CCOC2=O)c1 [E2]	86	26	23	
N#Cc1cccc(CC(=O)N[C@H]2CCOC2=O)c1 [E5]	67	34	62	
CSc1cccc(CC(=O)N[C@H]2CCOC2=O)c1 [E7]	70	24	32	
O=C(CCc1ccc(Cl)cc1)N[C@H]1CCOC1=O [E30]	64	79	53	
O=C(CCc1cccc(Br)c1)N[C@H]1CCOC1=O [E31]	65	58	71	
O=C(CCc1ccc([N+](=O)[O-])cc1)N[C@H]1CCOC1=O [E37]	69	65	22	
O=C(COc1ccc(I)cc1)N[C@H]1CCOC1=O [compound 2]				Inhibition [%] LasR (LasR [3]): −9%; Inhibition [%] QsCR (QscR [4]): 18%; elastase B production, single compound screens (P. aeruginosa (PAO1) [5]; MOPS Glutamate and Glucose media, complete or iron/phosphate depleted, 100 μM (compounds 1, 2, 3), relative to DMSO): little to no effect; rhamnolipid production, single compound screens (P. aeruginosa (PAO1) [6]): little to no effect; pyocyanin production, single compound screens (P. aeruginosa (PAO1) [7]): strong pyocyanin inhibition, unless phosphate concentrations were low; pyocyanin production in SCFM2, single compound (P. aeruginosa (PAO1) [7]; SCFM2, 17 h, 100 μM compound 2 alone): did not attenuate pyocyanin
O=C(CSc1nc2cc([N+](=O)[O-])ccc2[nH]1)Nc1ccc(Oc2ccccc2)cc1 [compound 4, 2-[(6-nitro-1H-benzimidazol-2-yl)-sulfanyl]-N-(4-phenoxyphenyl)acetamide]				elastase B production in MOPS Glutamate, single compound screen (P. aeruginosa (PAO1) [5]; MOPS Glutamate, 25 μM compound 4): strong attenuation of elastase B production; rhamnolipid production, single compound screens (P. aeruginosa (PAO1) [6]): failed to inhibit rhamnolipid production; also recorded: cannot inhibit rhamnolipid; pyocyanin production, single compound screens (P. aeruginosa (PAO1) [7]): eliminated pyocyanin synthesis under all conditions tested, even low iron and phosphate
